In ChEMBL document CHEMBL1201862, “PubChem BioAssay data set” (2004):
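Five concentrations, 48 hours, 96-well plates. GI50: concentration for 50% inhibition of growth.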 Activity calls are given as the source filed them. Cut-off read from the data, not from the text of the source: active = GI50 up to about 1.1 µM and inactive = higher.

How the values were obtained:
Assay in all cases: NCI-60 cell line screen, 48 h
TK-10 = tested on: TK-10
OVCAR-5 = tested on: OVCAR-5
SNB-75 = tested on: SNB-75
UACC-62 = tested on: UACC-62
M14 = tested on: M14
SNB-19 = tested on: SNB-19
SK-MEL-28 = tested on: SK-MEL-28
Hs-578T = tested on: Hs-578T
OVCAR-3 = tested on: OVCAR-3
UO-31 = tested on: UO-31
HOP-62 = tested on: HOP-62
SF-295 = tested on: SF-295
U-251 = tested on: U-251
SF-539 = tested on: SF-539
SR = tested on: SR
HL-60 = tested on: HL-60
COLO 205 = tested on: COLO 205
ACHN = tested on: ACHN
SW-620 = tested on: SW-620
HCC 2998 = tested on: HCC 2998

Measured: GI50

O=C(CC1C=Cc2ccccc2N1C(=O)c1ccccc1)c1ccccc1 (centres undefined)
inactive: TK-10 36.3 µM | OVCAR-5 25.5 µM | SNB-75 45.2 µM | UACC-62 11.7 µM | M14 20.1 µM | SNB-19 27.7 µM | SK-MEL-28 30.1 µM | Hs-578T 25.1 µM | OVCAR-3 13.4 µM | UO-31 20.4 µM | HOP-62 30.6 µM | SF-295 27 µM | U-251 23.1 µM | SF-539 22.6 µM | SR 11.9 µM | HL-60 14 µM | COLO 205 19.5 µM | ACHN 35.6 µM | SW-620 33.6 µM

COc1cc(CNc2c3ccccc3nc3ccccc23)cc(OC)c1OC
inactive: TK-10 5.53 µM | OVCAR-5 3.92 µM | SNB-75 4.02 µM | UACC-62 2.43 µM | M14 2.59 µM | HCC 2998 2.78 µM | SNB-19 4.63 µM | SK-MEL-28 5.04 µM | Hs-578T 3.64 µM | OVCAR-3 5.21 µM | UO-31 3.05 µM | HOP-62 2.93 µM | SF-295 3.56 µM | U-251 5.08 µM | SF-539 3.95 µM | SR 3.08 µM | COLO 205 1.69 µM | ACHN 3.07 µM | SW-620 1.16 µM

COc1ccc2c(c1)-c1c(c3cc(OC)ccc3n1CCN1CCOCC1)CC2
inactive: TK-10 32.7 µM | OVCAR-5 25.4 µM | SNB-75 19.8 µM | UACC-62 16.8 µM | M14 15.8 µM | HCC 2998 1.76 µM | SK-MEL-28 57.1 µM | Hs-578T 16.6 µM | OVCAR-3 46.1 µM | UO-31 24.5 µM | HOP-62 42.6 µM | SF-295 18.9 µM | U-251 29.4 µM | SF-539 28.4 µM | SR 3.94 µM | COLO 205 20 µM | ACHN 29.4 µM | SW-620 33.7 µM

CCOC(=O)C1=CNC(C(=O)OCC)C1c1cccn1-c1ccc(Cl)cc1[N+](=O)[O-] (centres undefined)
inactive: TK-10 13.1 µM | OVCAR-5 12.5 µM | SNB-75 17.4 µM | UACC-62 15.7 µM | M14 15.3 µM | HCC 2998 16.3 µM | SK-MEL-28 26.2 µM | Hs-578T 15.8 µM | OVCAR-3 10.6 µM | UO-31 22.9 µM | HOP-62 10 µM | SF-295 16.4 µM | U-251 20.7 µM | SF-539 16.6 µM | SR 25.7 µM | COLO 205 31.2 µM | ACHN 30.3 µM | SW-620 27.9 µM

C=C(C)C(=O)O[C@@H]1C[C@@]2(C)O[C@@H]2C[C@H](O)/C(C)=C/[C@H]2OC(=O)C(=C)[C@@H]21
inactive: TK-10 > 100 µM | OVCAR-5 > 100 µM | SNB-75 > 100 µM | UACC-62 74.5 µM | M14 43.1 µM | HCC 2998 > 100 µM | SNB-19 > 100 µM | SK-MEL-28 22.4 µM | Hs-578T > 100 µM | OVCAR-3 47.9 µM | HOP-62 > 100 µM | SF-295 > 100 µM | U-251 > 100 µM | SF-539 > 100 µM | SR 28.2 µM | COLO 205 42 µM | ACHN 47.2 µM | SW-620 18.7 µM

C/C(C=O)=N\Nc1cc(C)c2ccccc2n1
inactive: TK-10 15.5 µM | OVCAR-5 17.2 µM | SNB-75 15.1 µM | UACC-62 14.7 µM | M14 15.7 µM | HCC 2998 15.1 µM | SNB-19 19.1 µM | SK-MEL-28 16.3 µM | Hs-578T 17.3 µM | OVCAR-3 2.62 µM | UO-31 14.9 µM | HOP-62 11.2 µM | SF-295 15.2 µM | U-251 14 µM | SF-539 11.7 µM | SR 1.7 µM | COLO 205 16.4 µM | ACHN 16.3 µM | SW-620 24.7 µM

CCOC(=O)c1nc2ccc(C(F)(F)F)cc2nc1NCc1ccc(OC)c(OC)c1
inactive: TK-10 > 100 µM | OVCAR-5 > 100 µM | SNB-75 21.9 µM | UACC-62 73.6 µM | M14 67.8 µM | SNB-19 94.2 µM | Hs-578T 42.8 µM | OVCAR-3 45.8 µM | UO-31 60.7 µM | HOP-62 58.3 µM | SF-295 47.6 µM | U-251 41.8 µM | SF-539 > 100 µM | SR 29.6 µM | HL-60 22.8 µM | COLO 205 35.8 µM | ACHN 53.1 µM | SW-620 49.7 µM
